ChEMBL document CHEMBL5053484, “Structure-Based Identification of Potent Lysine-Specific Demethylase 1 Inhibitor Peptides and Temporary Cyclization to Enhance Proteolytic Stability and Cell Growth-Inhibitory Activity” (J Med Chem, 2021)
Residues, ends and D or L forms follow the SMILES beside them.

Assays:
WI-38 = assay: Antiproliferative activity against human WI-38 cells after 72 hrs by alamarBlue assay; format: cell-based; conditions: WI-38, 72 h
HL-60 = assay: cells; conditions: Homo sapiens, HL-60, 72 h
Description: Antiproliferative activity against human HL-60 cells measured after 72 hrs by alamarBlue assay

LSD1/CoREST complex = LSD1/CoREST complex (Homo sapiens, UniProt O60341); assay: Inhibition of human LSD1/CoREST; format: protein-complex assay

| Compound | IC50 (WI-38) [µM] | IC50 (HL-60) [µM] | Ki (LSD1/CoREST complex) [µM] |
| --- | --- | --- | --- |
| CC(C)C[C@H](NC(=O)[C@H](Cc1ccccc1)NC(=O)[C@H](CO)NC(=O)[C@H](CCCNC(=N)N)NC(=O)[C@@H]1CCCN1)C(=O)N[C@H](C(=O)N[C@@H](CCCNC(=N)N)C(=O)N[C@@H](CCCNC(=N)N)C(=O)N[C@@H](CCCCN)C(=O)O)C(C)C (H-PRSFLVRRK-OH) | > 100 | > 100 |  |
| N=C(N)NCCC[C@H](NC(=O)[C@H](CCCNC(=N)N)NC(=O)[C@H](CCCNC(=N)N)NC(=O)[C@H](CCCNC(=N)N)NC(=O)[C@H](CCCNC(=N)N)NC(=O)[C@H](CCCNC(=N)N)NC(=O)[C@H](CCCNC(=N)N)NC(=O)[C@H](CCCNC(=N)N)NC(=O)[C@H](CCCNC(=N)N)NC(=O)[C@H](CCCNC(=N)N)NC(=O)c1cc(OCc2cn(CCO)nn2)cc(OCc2cn(CCO)nn2)c1)C(N)=O |  | > 100 | 0.17 |
| CC(C)C[C@@H]1NC(=O)[C@H](Cc2ccccc2)NC(=O)[C@H](CO)NC(=O)[C@H](CCCNC(=N)N)NC(=O)[C@@H]2CCCN2C(=O)OCCSSCCn2cc(nn2)COc2cc(cc(C(=O)N[C@@H](CCCNC(=N)N)C(=O)N[C@@H](CCCNC(=N)N)C(=O)N[C@@H](CCCNC(=N)N)C(=O)N[C@@H](CCCNC(=N)N)C(=O)N[C@@H](CCCNC(=N)N)C(=O)N[C@@H](CCCNC(=N)N)C(=O)N[C@@H](CCCNC(=N)N)C(=O)N[C@@H](CCCNC(=N)N)C(=O)N[C@@H](CCCNC(=N)N)C(=O)N[C@@H](CCCNC(=N)N)C(N)=O)c2)OCc2cn(nn2)CCSSCCOC(=O)NCCCC[C@@H](C(N)=O)NC(=O)[C@H](CCCNC(=N)N)NC(=O)[C@H](CCCNC(=N)N)NC(=O)[C@H](C(C)C)NC1=O | 41 | 5.2 |  |
| CC(C)C[C@@H]1NC(=O)[C@H](Cc2ccccc2)NC(=O)[C@H](CO)NC(=O)[C@H](CCCNC(=N)N)NC(=O)[C@@H]2CCCN2C(=O)OCCOCCn2cc(nn2)COc2cc(cc(C(=O)N[C@@H](CCCNC(=N)N)C(=O)N[C@@H](CCCNC(=N)N)C(=O)N[C@@H](CCCNC(=N)N)C(=O)N[C@@H](CCCNC(=N)N)C(=O)N[C@@H](CCCNC(=N)N)C(=O)N[C@@H](CCCNC(=N)N)C(=O)N[C@@H](CCCNC(=N)N)C(=O)N[C@@H](CCCNC(=N)N)C(=O)N[C@@H](CCCNC(=N)N)C(=O)N[C@@H](CCCNC(=N)N)C(N)=O)c2)OCc2cn(nn2)CCOCCOC(=O)NCCCC[C@@H](C(N)=O)NC(=O)[C@H](CCCNC(=N)N)NC(=O)[C@H](CCCNC(=N)N)NC(=O)[C@H](C(C)C)NC1=O | > 100 | 17 |  |
| CN1CCN(C(=O)CNC2CC2c2cc(F)cc(F)c2OCc2ccccc2)CC1 (centres undefined) | > 50 |  |  |
